# Source: publication PMC9412875, “^64Cu-DOTHA2-PSMA, a Novel PSMA PET Radiotracer for Prostate Cancer with a Long Imaging Time Window” (Pharmaceuticals, 2022)
# How the values were obtained:
# LNCaP cells = assay: Cellular uptake and internalization assays; type: cell-based, human; conditions: for cellular uptake: n = 9
# Procedure: Here, 12-well polylysine-coated Cellbind plates were seeded with 150 × 10^3 LNCaP cells with 1.75 mL of cell media. At 70–100% confluence (3 days of growth), the cell medium was changed and 37 kBq of ^64Cu-DOTHA2-PSMA in 1 mL of cell medium was added to each well of group 1 and 160 kBq to each of group 2.
# Uptake and internalization assay cells were incubated for 15, 30, 45, 60 min, 2 h, 3 h, and 4 h in group 1 or 4 h, 8 h, 12 h, 24 h, 36 h, and 48 h in group 2 (3 wells per time point in all groups). Repetition of the 4 h time point was used to ensure reproducibility. After incubation, the medium was removed, and cells were washed with 1 mL of cold PBS. For the uptake assays, cells were directly treated with 1 mL of trypsin to be collected and their activity was assayed (HIDEX AMG Gamma Counter 425-601). For internalization assays, cells were incubated with 1 mL of acidic glycine (50 mM, pH = 2,8) for 5 min to remove membrane-bound ^64Cu-DOTHA2-PSMA, washed with 3 mL of cold PBS, and collected using 1 mL of trypsin to be measured in the gamma-counter. Uptake and internalization results were expressed as the percentage of activity injected in the well (IA) in functions of time, normalized to 10^6 cells.
# All the assays were performed at least 3 times, each with different ^64Cu-DOTHA2-PSMA production and cell passage. Cells were counted in 3 wells for each protocol (uptake, internalization, and efflux) on day 1 and day 3 of each experiment and an average for cells numbers at day 2.
# [1] = Balb/c mice biodistribution; type: in vivo
# Procedure: ^64Cu-DOTHA2-PSMA biodistribution was assessed in balb/c mice (n = 30) by harvesting blood and organs at 1 h, 2 h, 4 h, 24 h, and 48 h p.i. to measure tissue radioactivity and weight. Results were reported as the %IA/g of tissue and compared with the radiotracer used for clinical imaging in our facility, ^68Ga-PSMA-617.
# Balb/c mice (n = 30) were injected with a bolus of ^64Cu-DOTHA2-PSMA by the tail vein (in 0.3 mL of saline: 3 MBq for 1 h, 2 h, and 4 h p.i., 7.5 MBq for 24 h p.i. and 21 MBq for 48 h p.i.). Injected activity had to be increased for later time points to ensure reliable detection and reliability in organs with a low uptake, e.g., the brain. At all timepoints, blood was collected using a heparin-coated syringe by femoral vein puncture and mice were then euthanized and dissected. Harvested tissues were rinsed, blotted dry, and then weighted and counted in gamma counter. The results are reported as the %IA per gram of tissue. The biodistribution results were compared with the ^68Ga-PSMA-617 results obtained by our team at 1 h and 2 h p.i.
smiles,measurement,setting,value
CN([O-])C(=O)CN1CCN(CC(=O)NCC2CCC(C(=O)NC(Cc3ccc4ccccc4c3)C(=O)NCCCCC(NC(=O)NC(CCC(=O)O)C(=O)O)C(=O)O)CC2)CCN(CC(=O)N(C)[O-])CCN(CC(=O)N(C)O)CC1.[64Cu+2] (centres unmarked) [^64Cu-DOTHA2-PSMA],cellular uptake,LNCaP cells; 30 min,22.0 ± 8.8 % IA/10^6 cells
same,internalization,LNCaP cells; 2 h,12.2 ± 6.7 % IA/10^6 cells
same,internalization,LNCaP cells; 48 h,34.1 ± 4.9 % IA/10^6 cells
same,cellular uptake,LNCaP cells; 48 h,34.5 ± 13.6 % IA/10^6 cells
same,kidney uptake difference to 68Ga-PSMA-617 (lower),[1]; 2 h p.i.,23.3%
same,liver uptake,[1]; 2 h p.i.,29.9 ± 5.0 % IA/g
same,liver uptake (peak),[1]; 4 h p.i.,30.2 ± 4.2 % IA/g
same,uptake in the kidneys (highest over time points),[1]; up to 48 h p.i.,at most 15.8 ± 7.0 % IA/g
